A value given as a limit tells only on which side of the number the result lay.

Here are results for nine compounds from patent US20240342186A1, “PYRIDINE DERIVATIVES WITH N-LINKED CYCLIC SUBSTITUENTS AS cGAS INHIBITORS” (Boehringer Ingelheim International GmbH, priority 2021, published 2024).

For experiment [1], the system named is cellular cGAS activity in dsDNA-stimulated human whole blood. Briefly: Human whole blood assay (hWB IC50): IFNα2α production after dsDNA transfection. As to conditions: inhibition of IFN induction in dsDNA-stimulated human whole blood. Type of experiment: cell-based. A digest of the protocol: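 Citrated blood from healthy donors preincubated 60 min at room temperature with compound (top 10 µM, ~1:5 steps, 0.1% DMSO), then transfected with dsDNA/Fugene and incubated 22 h at 37 °C. Plasma IFNα2α measured by MSD immunoassay; IC50 from 4-parameter fit of % control (stimulated vs unstimulated).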

In experiment [2] the target is cGAS (Homo sapiens (Human), UniProt Q8N884). Nature of the experiment: Human cGAS enzyme assay (hcGAS IC50, in vitro), cGAMP formation by RapidFire MS.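 Also: enzyme activated by 45 bp dsDNA with GTP and ATP (30 µM each), 60 min compound pre-incubation then 90 min reaction, cGAMP relative to cyclic-di-GMP internal standard, 8-point dilutions up to 10 µM.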 Type of experiment: biochemical. Conditions: biochemical (in vitro) cGAS inhibition.
cGAS, sequence (Q8N884 whole entry): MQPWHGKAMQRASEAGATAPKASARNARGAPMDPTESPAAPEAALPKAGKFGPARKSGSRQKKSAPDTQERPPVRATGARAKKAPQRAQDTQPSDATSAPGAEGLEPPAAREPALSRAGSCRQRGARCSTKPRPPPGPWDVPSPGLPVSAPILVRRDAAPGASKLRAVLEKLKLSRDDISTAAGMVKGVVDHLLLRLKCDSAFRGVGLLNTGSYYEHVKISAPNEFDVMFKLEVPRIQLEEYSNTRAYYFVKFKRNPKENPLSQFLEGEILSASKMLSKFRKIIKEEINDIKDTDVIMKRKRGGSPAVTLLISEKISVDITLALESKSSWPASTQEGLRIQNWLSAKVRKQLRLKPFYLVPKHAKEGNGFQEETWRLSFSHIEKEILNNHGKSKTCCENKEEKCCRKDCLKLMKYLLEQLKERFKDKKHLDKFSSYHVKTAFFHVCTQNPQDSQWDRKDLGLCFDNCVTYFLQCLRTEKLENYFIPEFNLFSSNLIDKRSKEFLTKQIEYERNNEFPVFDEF
The subject of experiment [3] is cellular cGAS activity in baculovirus-stimulated THP1-Dual cells (IRF dependent Lucia luciferase reporter). Briefly: Human cGAS cell assay: inhibition of IFN induction in virus-stimulated THP1 cells (THP1(vir) IC50). Conditions: Homo sapiens, THP1-Dual; inhibition of IFN induction in virus-stimulated THP1 cells; read-out: THP1(vir) IC50. The experiment is classed as cell-based. A digest of the protocol:
(§1)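 THP1-Dual cells with IRF-dependent Lucia luciferase reporter, stimulated by empty baculovirus (dsDNA delivery activating cGAS) or, for the counter assay, directly by cGAMP. 5000 cells/well, 8 concentrations from 10 μM top, 1% DMSO, 18 h at 37 °C; luminescence read, IC50 by 4-parameter logistic fit versus unstimulated low control.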

Experiment [4] deals with cGAMP-stimulated THP1-Dual cells (pathway directly downstream of cGAS). Briefly: cGAMP stimulated counter cell assay: inhibition of IFN induction in cGAMP-stimulated THP1 cells (THP1(cGAMP) IC50). The experiment is classed as cell-based, human. As to conditions: for IC50: Homo sapiens, THP1-Dual, inhibition of IFN induction in cGAMP-stimulated THP1 cells, read-out: THP1(cGAMP) IC50 (converted); for Ratio THP1(cGAMP) IC50 / THP1(vir) IC50: selectivity for cGAS inhibition. The method in brief:
as §1

On to `C#Cc1cnc(O[C@H]2C[C@@H](C(=O)O)N(c3nc(C(F)F)nc4c3oc3ccccc34)C2)c(N2CCOCC2)c1` [Example 2.01, (2S,4S)-1-[4-(Difluoromethyl)-8-oxa-3,5-diazatricyclo[7.4.0.0^2,7]trideca-1(13),2,4,6,9,11-hexzen-6-yl]-4-{[5-ethynyl-3-(morpholin-4-yl)pyridin-2yl]oxy}-pyrrolidine-2-carboxylic acid], for which the IC50 was 506 nM in experiment [1], 8 nM in experiment [2], 858 nM in experiment [3] and more than 16600 nM in experiment [4]. The “Ratio THP1(cGAMP) IC50 / THP1(vir) IC50” value in experiment [4] was more than 19.
As to `C#Cc1cnc(O[C@H]2C[C@@H](C(=O)O)N(c3nc(C(F)(F)F)nc4c3oc3ccccc34)C2)c(N2CCOCC2)c1` [Example 2.02], the 50% inhibitory concentration (IC50) was 1030 nM in experiment [1], 7 nM in experiment [2], 752 nM in experiment [3] and more than 16600 nM in experiment [4]. In experiment [4], the “Ratio THP1(cGAMP) IC50 / THP1(vir) IC50” value is more than 22.
In the case of `C#Cc1cnc(O[C@H]2C[C@@H](C(=O)O)N(c3nc(CF)nc4c3oc3ccccc34)C2)c(N2CCOC3(COC3)[C@@H]2C)c1` [Example 2.04], the IC50 in experiment [1] is 5 nM; in experiment [2], 1 nM; in experiment [3], 3 nM; in experiment [4], 25400 nM. Also, the “Ratio THP1(cGAMP) IC50 / THP1(vir) IC50” value in experiment [4] was 8125.
Turning to `C#Cc1cnc(O[C@H]2C[C@@H](C(=O)O)N(c3nc(Cl)nc4c3oc3ccccc34)C2)c(N2CCOC3(COC3)[C@@H]2C)c1` [Example 2.05], the half-inhibitory concentration (IC50) in experiment [1] was 8 nM; in experiment [2], 2 nM; in experiment [3], 4 nM; in experiment [4], 10800 nM. For the same compound, the “Ratio THP1(cGAMP) IC50 / THP1(vir) IC50” value in experiment [4] is given as 3018.
As to `C#Cc1cnc(O[C@H]2C[C@@H](C(=O)O)N(c3nc(C)nc4c3oc3cc(C(F)F)ccc34)C2)c(N2CCOC3(COC3)[C@@H]2C)c1` [Example 2.06], the 50% inhibitory concentration (IC50) in experiment [1] was 52 nM; in experiment [2], 4 nM; in experiment [3], 63 nM; in experiment [4], 11900 nM. Moreover, the “Ratio THP1(cGAMP) IC50 / THP1(vir) IC50” value in experiment [4] is 189.
For `C#Cc1cnc(O[C@H]2C[C@@H](C(=O)O)N(c3nc(C)nc4c3oc3cc(Cl)ccc34)C2)c(N2CCOC3(COC3)[C@@H]2C)c1` [Example 2.07], the IC50 was 28 nM in experiment [1], 3 nM in experiment [2], 14 nM in experiment [3] and 14500 nM in experiment [4]. In addition, the “Ratio THP1(cGAMP) IC50 / THP1(vir) IC50” value in experiment [4] turned out to be 1005.
`C#Cc1cnc(O[C@H]2C[C@@H](C(=O)O)N(c3nc(C)nc4c3oc3cc(F)ccc34)C2)c(N2CCOC3(COC3)[C@@H]2C)c1` [Example 2.08]: the half-maximal inhibitory concentration (IC50) was 6 nM in experiment [1], 3 nM in experiment [2], less than 5 nM in experiment [3] and 18800 nM in experiment [4]. Moreover, the “Ratio THP1(cGAMP) IC50 / THP1(vir) IC50” value in experiment [4] is listed as 3490.
Regarding `C#Cc1cnc(O[C@H]2C[C@@H](C(=O)O)N(c3nc(C(F)(F)F)nc4c3oc3cc(CC)ccc34)C2)c(N2CCOC3(COC3)[C@@H]2C)c1` [Example 2.09], the IC50 was 37 nM in experiment [1], 6 nM in experiment [2], 31 nM in experiment [3] and 5180 nM in experiment [4]. Further, in experiment [4], the “Ratio THP1(cGAMP) IC50 / THP1(vir) IC50” value came out at 166.
`C#Cc1cnc(O[C@H]2C[C@@H](C(=O)O)N(c3nc(CCl)nc4c3oc3ccccc34)C2)c(N2CCOC3(COC3)[C@@H]2C)c1` [Example 2.10]: the IC50 in experiment [1] is 24 nM; in experiment [2], 3 nM; in experiment [3], 5 nM; in experiment [4], 2750 nM. For the same compound, in experiment [4], the “Ratio THP1(cGAMP) IC50 / THP1(vir) IC50” value is given as 533.
